Reference: ChEMBL document CHEMBL5537142 (Eur J Med Chem, 2024)
In brackets after ≈: the same amount, converted by molar mass. Activity calls are given as the source filed them. The rule behind the calls is not given here.

Assays:
[1] = Solubility of compound incubated for 5 mins by absorbance based assay; assay type: physicochemical
MCF7 [2] = experiment: Inhibition of cell viability in human MCF7 cells at 100 uM incubated for 72 hrs by resazurin based assay; assay type: functional
MDA-MB-468 [3] = experiment: Inhibition of cell viability in human MDA-MB-468 cells at 100 uM incubated for 72 hrs by resazurin based assay; assay type: functional
MDA-MB-231 [4] = experiment: Inhibition of cell viability in human MDA-MB-231 cells at 100 uM incubated for 72 hrs by resazurin based assay; assay type: functional
MDA-MB-468 [5] = experiment: Induction of cell death in human MDA-MB-468 cells at 0.05 to 200 uM incubated for 72 hrs by resazurin based assay; assay type: functional; conditions: dose 0.05-200 µM
MDA-MB-231 [6] = experiment: Induction of cell death in human MDA-MB-231 cells at 0.05 to 200 uM incubated for 72 hrs by resazurin based assay; assay type: functional; conditions: dose 0.05-200 µM
MCF7 [7] = experiment: Induction of cell death in human MCF7 cells at 0.05 to 200 uM incubated for 72 hrs by resazurin based assay; assay type: functional; conditions: dose 0.05-200 µM
MDA-MB-468 [8] = experiment: Inhibition of cell viability in human MDA-MB-468 cells upto 100 uM incubated for 72 hrs by resazurin based assay relative to control; assay type: functional; conditions: up to 100 µM
MDA-MB-231 [9] = experiment: Inhibition of cell viability in human MDA-MB-231 cells upto 100 uM incubated for 72 hrs by resazurin based assay relative to control; assay type: functional; conditions: up to 100 µM
MCF7 [10] = experiment: Inhibition of cell viability in human MCF7 cells upto 100 uM incubated for 72 hrs by resazurin based assay relative to control; assay type: functional; conditions: up to 100 µM
MDA-MB-468 [11] = experiment: Cytotoxicity against human MDA-MB-468 cells assessed as cell viability at 100 uM incubated for 72 hrs by resazurin based assay relative to control; assay type: functional; conditions: read-out: Activity
MDA-MB-231 [12] = experiment: Cytotoxicity against human MDA-MB-231 cells assessed as cell viability at 100 uM incubated for 72 hrs by resazurin based assay relative to control; assay type: functional; conditions: read-out: Activity
MCF7 [13] = experiment: Cytotoxicity against human MCF7 cells assessed as cell viability at 100 uM incubated for 72 hrs by resazurin based assay relative to control; assay type: functional; conditions: read-out: Activity
[14] = target: T1, Dihydrofolate reductase (Homo sapiens) (UniProt P00374); conditions: MDA-MB-468, dose 10.0 nM, time 24.0 hrs
T1 sequence (whole entry): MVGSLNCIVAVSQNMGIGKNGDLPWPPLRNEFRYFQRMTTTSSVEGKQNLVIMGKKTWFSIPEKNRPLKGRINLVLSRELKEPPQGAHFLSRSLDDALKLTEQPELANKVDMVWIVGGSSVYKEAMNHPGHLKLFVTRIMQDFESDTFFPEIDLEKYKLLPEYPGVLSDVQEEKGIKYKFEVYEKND

[15] = target: T1, Dihydrofolate reductase (Homo sapiens); conditions: MDA-MB-468, dose 1.0 nM, time 24.0 hrs

| solubility at 5 min [1] [µM] | SMILES | inhibition (MCF7 [2]) | inhibition (MDA-MB-468 [3]) | inhibition (MDA-MB-231 [4]) | other results |
| --- | --- | --- | --- | --- | --- |
| > 100 | Nc1ncc(-c2ccc(Cl)c(Cl)c2)c(N)n1 |  |  |  |  |
| > 100 | CC(C)c1ccc(-c2cnc(N)nc2N)cc1 | inactive |  |  |  |
| > 100 | Nc1ncc(-c2ccc3ccccc3c2)c(N)n1 | Active | Active | Active | Activity (MDA-MB-468 [5]): Active; Activity (MDA-MB-231 [6]): Active; Activity (MCF7 [7]): Active |
| > 100 | NCCCCCCNc1ccc(-c2cnc(N)nc2N)cc1[N+](=O)[O-] | Active | Active | Active | Activity (MDA-MB-468 [5]): Active; Activity (MDA-MB-231 [6]): Active; Activity (MCF7 [7]): Active |
| > 100 | Nc1ncc(-c2ccc(Cl)c([N+](=O)[O-])c2)c(N)n1 |  |  |  |  |
|  | Cc1ccc(-c2cnc(N)nc2N)cc1 | inactive |  |  |  |
| > 100 | COc1cc(-c2cnc(N)nc2N)ccc1C |  |  |  |  |
|  | Nc1ncc(-c2ccc(Cl)c(F)c2)c(N)n1 | inactive |  |  |  |
|  | Nc1ncc(-c2ccc(F)cc2Br)c(N)n1 | inactive | inactive | inactive |  |
| > 100 | Nc1ncc(-c2cccc(Cl)c2)c(N)n1 |  |  |  |  |
| ~10 (≈ 3.66 µg/mL) | COc1ccc(CNc2ccc(-c3cnc(N)nc3N)cc2[N+](=O)[O-])cc1 | Active | Active | Active | Activity (MDA-MB-468 [5]): Active; Activity (MDA-MB-231 [6]): Active; Activity (MCF7 [7]): Active |
|  | CC(C)(C)c1ccc(-c2cnc(N)nc2N)cc1 |  | Active |  |  |
| > 100 | Nc1ncc(-c2ccc(N3CCCC3)c([N+](=O)[O-])c2)c(N)n1 | Active | Active | Active | Activity (MDA-MB-468 [5]): Active; Activity (MDA-MB-231 [6]): Active; Activity (MCF7 [7]): Active |
| ~10 (≈ 3.5 µg/mL) | CN(Cc1ccccc1)c1ccc(-c2cnc(N)nc2N)cc1[N+](=O)[O-] | inactive |  |  |  |

| SMILES | solubility at 5 min [1] [µM] | inhibition (MCF7 [2]) | inhibition (MDA-MB-468 [3]) | inhibition (MDA-MB-231 [4]) | other results |
| --- | --- | --- | --- | --- | --- |
| CCc1nc(N)nc(N)c1-c1ccc(Cl)cc1 [PYRIMETHAMINE] | > 100 |  |  |  | inhibition (INH) (MDA-MB-468 [8]): ~50%; inhibition (INH) (MDA-MB-231 [9]): ~50%; inhibition (INH) (MCF7 [10]): ~50%; viability at 100 µM (MDA-MB-468 [11]): ~50%; viability at 100 µM (MDA-MB-231 [12]): ~50%; viability at 100 µM (MCF7 [13]): ~50%; inhibition [14]: Active; inhibition [15]: 40% |
